Test results from ChEMBL document CHEMBL3301361, “Experimental in vitro DMPK and physicochemical data on a set of publicly disclosed compounds”.
≈ marks a conversion by molar mass, not a printed value.

test: physchem; conditions: pH 7.4 buffer

For `CC1(C)Oc2ncnc(N)c2N=C1c1ccc(C23CC4CC(CC(CC(=O)O)(C4)C2)C3)cc1`, which solubility thermodynamic is on record?
The solubility thermodynamic was 79.4 µM (≈ 35.5 µg/mL).

With `COCCNS(=O)(=O)c1ccc(Nc2nccc(-c3cnc(C)n3C3CCCC3)n2)cc1` as the compound, how does the solubility thermodynamic read?
The solubility thermodynamic was 53.7 µM (≈ 24.5 µg/mL).

Which solubility thermodynamic does the source give for `COCCN(C)S(=O)(=O)c1ccc(Nc2nccc(-c3cnc(C)n3C)n2)cc1` here?
Its solubility thermodynamic is 56.2 µM (≈ 23.4 µg/mL).

For `Cc1ncc(-c2ccnc(Nc3ccc(N4CCOCC4)cc3)n2)n1C(C)C`, which solubility thermodynamic is on record?
The solubility thermodynamic was 56.2 µM (≈ 21.3 µg/mL).

Which solubility thermodynamic does the source give for `Cc1c(NC(=O)OC[C@@H]2COCCN2)cn2ncnc(Nc3ccc4c(cnn4Cc4cccc(F)c4)c3)c12` [AC-480] here?
Its solubility thermodynamic is 1.7 µM (≈ 0.902 µg/mL).

With `CCN1CCN(Cc2ccc(-c3cc4c(N[C@H](C)c5ccccc5)ncnc4[nH]3)cc2)CC1` [AEE-788] as the compound, how does the solubility thermodynamic read?
The solubility thermodynamic was 58.9 µM (≈ 26 µg/mL).

Which solubility thermodynamic does the source give for `Cc1cccc(-c2ccc3c(c2)c(C(=O)C(=O)O)cn3Cc2ccc(C(C)(C)C)cc2)c1` [ALEPLASININ] here?
The solubility thermodynamic was 363 µM (≈ 155 µg/mL).

For `COc1cc2ncnc(Nc3ccc(NC(=O)c4ccccc4)cc3)c2cc1OC` [ANILINOQUINAZOLINE1], which solubility thermodynamic is on record?
The solubility thermodynamic was 10 µM (≈ 4 µg/mL).

For `COc1ccc(Cl)c(Nc2ncnc3cc(OCC4CCN(C)CC4)c(OC)cc23)c1` [AZM-475271], which solubility thermodynamic is on record?
The solubility thermodynamic was 324 µM (≈ 143 µg/mL).

Which solubility thermodynamic does the source give for `Cc1c(-c2ccc(O)cc2)n(Cc2ccc(OCCN3CCCCCC3)cc2)c2ccc(O)cc12` [BAZEDOXIFENE] here?
The solubility thermodynamic was 5.2 µM (≈ 2.45 µg/mL).

Which solubility thermodynamic does the source give for `c1ccc(-c2ccc(C(c3ccccc3)n3ccnc3)cc2)cc1` (centres undefined) [BIFONAZOLE] here?
The solubility thermodynamic was 1.1 µM (≈ 0.341 µg/mL).

With `COc1ccc(/C=C\c2cc(OC)c(OC)c(OC)c2)cc1O` [COMBRETASTATIN A4] as the compound, how does the solubility thermodynamic read?
The solubility thermodynamic was 144 µM (≈ 45.7 µg/mL).

Which solubility thermodynamic does the source give for `COCC(=O)NC/C=C/c1ccc2ncnc(Nc3ccc(Oc4ccc(C)nc4)c(C)c3)c2c1` [CP-724714] here?
The solubility thermodynamic was 1.1 µM (≈ 0.516 µg/mL).

For `CN(C)C(=O)Nc1ccc(Cl)c(Cl)c1` [DCMU], which solubility thermodynamic is on record?
The solubility thermodynamic was 132 µM (≈ 30.7 µg/mL).

With `CCC[C@@H]1O[C@@H]2C[C@H]3[C@@H]4CCC5=CC(=O)C=C[C@]5(C)[C@H]4[C@@H](O)C[C@]3(C)[C@]2(C(=O)CO)O1` [DEXBUDESONIDE] as the compound, how does the solubility thermodynamic read?
The solubility thermodynamic was 19.5 µM (≈ 8.4 µg/mL).

With `CC/C(=C(/CC)c1ccc(O)cc1)c1ccc(O)cc1` [DIETHYLSTILBESTROL] as the compound, how does the solubility thermodynamic read?
The solubility thermodynamic was 25.1 µM (≈ 6.74 µg/mL).

Which solubility thermodynamic does the source give for `CN1CCN(c2ccc3nc(-c4c(N)c5c(F)cccc5[nH]c4=O)[nH]c3c2)CC1` [DOVITINIB] here?
Its solubility thermodynamic is 8.3 µM (≈ 3.26 µg/mL).

For `O=C1NCNC1(c1ccccc1)c1ccccc1` [DOXENITOIN], which solubility thermodynamic is on record?
Its solubility thermodynamic is 316 µM (≈ 75.3 µg/mL).

With `CC1(C)C=Cc2c(O)nc3ccccc3c2O1` [FLINDERSINE] as the compound, how does the solubility thermodynamic read?
The solubility thermodynamic was 67.6 µM (≈ 15.4 µg/mL).

For `COc1ccc2[nH]c(=O)c3c(c2c1)OC(C)(C)C=C3` [HAPLAMINE], which solubility thermodynamic is on record?
The solubility thermodynamic was 87.1 µM (≈ 22.4 µg/mL).

With `NC(=O)c1ccc(I)c([N+](=O)[O-])c1` [INIPARIB] as the compound, how does the solubility thermodynamic read?
The solubility thermodynamic was 417 µM (≈ 122 µg/mL).

With `CCCNC(=O)Nc1ccc(Oc2ncnc3cc(OC)c(OC)cc23)cc1Cl` [KRN-633] as the compound, how does the solubility thermodynamic read?
Its solubility thermodynamic is 0.2 µM (≈ 0.0834 µg/mL).

Which solubility thermodynamic does the source give for `O=c1cc(-c2cccc3c2Sc2ccccc2S3)oc(N2CCOCC2)c1` [KU-55933] here?
Its solubility thermodynamic is 7.1 µM (≈ 2.81 µg/mL).

Which solubility thermodynamic does the source give for `CC1(C)CNc2cc(NC(=O)c3cccnc3NCc3ccncc3)ccc21` [MOTESANIB] here?
The solubility thermodynamic was 44.7 µM (≈ 16.7 µg/mL).

For `COc1c(C)c2c(c(O)c1C/C=C(\C)CCC(=O)NO)C(=O)OC2` [MYCOPHENOLIC HYDROXAMIC ACID], which solubility thermodynamic is on record?
The solubility thermodynamic was 1000 µM (≈ 335 µg/mL).

With `CNC(=O)c1c(-c2ccc(F)cc2)oc2cc(N(CCO)S(C)(=O)=O)c(C3CC3)cc12` [NESBUVIR] as the compound, how does the solubility thermodynamic read?
Its solubility thermodynamic is 60.3 µM (≈ 26.9 µg/mL).

For `Cc1cn(-c2cc(NC(=O)c3ccc(C)c(Nc4nccc(-c5cccnc5)n4)c3)cc(C(F)(F)F)c2)cn1` [NILOTINIB], which solubility thermodynamic is on record?
Its solubility thermodynamic is 1.1 µM (≈ 0.582 µg/mL).

Which solubility thermodynamic does the source give for `COC(=O)C1=C(C#N)NC(C)=C(C(=O)OC(C)C)C1c1cccc([N+](=O)[O-])c1` (centres undefined) [NILVADIPINE] here?
Its solubility thermodynamic is 2.1 µM (≈ 0.809 µg/mL).

With `COc1ccc(/C=C\c2cc(OC)c(OC)c(OC)c2)cc1NC(=O)[C@@H](N)CO` [OMBRABULIN] as the compound, how does the solubility thermodynamic read?
The solubility thermodynamic was 1510 µM (≈ 609 µg/mL).

With `CCOc1cc2ncc(C#N)c(Nc3ccc(F)c(Cl)c3)c2cc1NC(=O)/C=C/CN(C)C` [PELITINIB] as the compound, how does the solubility thermodynamic read?
Its solubility thermodynamic is 1.5 µM (≈ 0.702 µg/mL).

For `c1ccc2c(c1)Nc1ccccc1S2` [PHENOTHIAZINE], which solubility thermodynamic is on record?
Its solubility thermodynamic is 2.9 µM (≈ 0.578 µg/mL).

With `C[C@@H](Nc1ncnc2[nH]c(-c3ccc(O)cc3)cc12)c1ccccc1` [PKI-166] as the compound, how does the solubility thermodynamic read?
Its solubility thermodynamic is 28.8 µM (≈ 9.52 µg/mL).

For `CC1(C)SCCN(S(=O)(=O)c2ccc(Oc3ccncc3)cc2)[C@H]1C(=O)NO` [PRINOMASTAT], which solubility thermodynamic is on record?
The solubility thermodynamic was 69.2 µM (≈ 29.3 µg/mL).

With `COc1cc(NS(=O)(=O)c2ccc(N)cc2)nc(OC)n1` [SULFADIMETHOXINE] as the compound, how does the solubility thermodynamic read?
Its solubility thermodynamic is 1290 µM (≈ 400 µg/mL).

For `CNC(=O)c1cc(COc2nnc(Nc3ccc(Cl)cc3)c3ccoc23)ccn1` [TELATINIB], which solubility thermodynamic is on record?
Its solubility thermodynamic is 0.3 µM (≈ 0.123 µg/mL).

For `O=C1NC(=O)C2(CCc3ccccc3C2)N1` (centres undefined) [TETRANTOIN], which solubility thermodynamic is on record?
The solubility thermodynamic was 224 µM (≈ 48.4 µg/mL).

With `O=C1CCC(N2C(=O)c3ccccc3C2=O)C(=O)N1` (centres undefined) [THALIDOMIDE] as the compound, how does the solubility thermodynamic read?
Its solubility thermodynamic is 155 µM (≈ 40 µg/mL).

For `O=C(Nc1ccccc1)Nc1cnns1` [THIDIAZURON], which solubility thermodynamic is on record?
The solubility thermodynamic was 178 µM (≈ 39.2 µg/mL).

For `Cc1c(Cc2ccc3ccccc3n2)c2cc(F)ccc2n1CC(=O)O` [TIMAPIPRANT], which solubility thermodynamic is on record?
Its solubility thermodynamic is 112 µM (≈ 39.1 µg/mL).

Which solubility thermodynamic does the source give for `Cn1cncc1[C@@](N)(c1ccc(Cl)cc1)c1ccc2c(c1)c(-c1cccc(Cl)c1)cc(=O)n2C` [TIPIFARNIB] here?
The solubility thermodynamic was 9.5 µM (≈ 4.65 µg/mL).

With `COc1cc2nccc(Oc3ccc(NC(=O)Nc4cc(C)on4)c(Cl)c3)c2cc1OC` [TIVOZANIB] as the compound, how does the solubility thermodynamic read?
The solubility thermodynamic was 9.3 µM (≈ 4.23 µg/mL).

Which solubility thermodynamic does the source give for `O=C(CCCCCCC(=O)Nc1ccccc1)NO` [VORINOSTAT] here?
Its solubility thermodynamic is 1230 µM (≈ 325 µg/mL).

Which solubility thermodynamic does the source give for `c1ccc2c(c1)Cc1ccccc1O2` [XANTHENE] here?
Its solubility thermodynamic is 4.4 µM (≈ 0.802 µg/mL).

Which solubility thermodynamic does the source give for `O=c1c2ccccc2oc2ccccc12` [XANTHONE] here?
Its solubility thermodynamic is 20 µM (≈ 3.92 µg/mL).
